The format of this series is physicochemical. The settings on record: KI method.

Like-named read-outs stand apart in the source and are kept apart here.

Turning to `[Na+].[O-][Cl+][O-]` [NaClO2], the Residual chlorine concentration result (neutral pH environment) is recorded as “several”.
Take `[O-][Cl+3]([O-])([O-])O` [perchloric acid]: the Residual chlorine concentration entry (perchloric acid aqueous solution) is “zero”.

The values above are taken from patent publication US20100003342A1, “Aqueous solution and method of prolonging life of residual chlorine in aqueous solution” (priority 2006, published 2010).
